Counter-ions that a name gives are not always drawn.

For the assay, the system named is MC3T3-E1 cells. In words: ALP activity, differentiation of osteoblast cells. The class given is cell-based. The note with it: Mus musculus, MC3T3-E1, 144 h; MC3T3E1 cells treated with 10 μM compound and OF; relates activity to OF-only group (100%); higher = more efficacious. As for the experimental part: To examine the effects of the inventive indenone derivatives on the differentiation and activation of osteoblast cells, the activity and expression of alkaline phosphatase (ALP), a marker for the differentiation of osteoblast cells, and the bone nodule formation using a mouse derived osteoblast-like cells, MC3T3-E1 (ATCC, Japan) or a primary mouse calvaria derived preosteoblastic cells were observed.
MC3T3-E 1 cells were seeded in a medium containing osteogenic factors (OF) such as ascorbic acids and β-glycerophosphates (b-GP), and each compound of Examples was added thereto at a concentration of 0.1, 1 and 10 μM. The cells were incubated for 6 days (MC3T3-E1 cells) or 7 days (primary mouse calvaria derived preosteoblastic cells) in a 37° C. CO2 incubator. Then, the culture medium was replaced with a fresh medium together with the test compound every two or three days. On the last day, the medium was centrifuged to remove the supernatant, and the cells were washed with PBS. The washed cells were subjected to a 3-cycle freege-thaw treatment using a −70° C. deep freezer to allow enzymes elute in a lysis buffer. The lysed protein was quantified, followed by measurement of ALP activity using 4-nitrophenylphosphate.
Further, a group treated only with DMSO or OF was tested for ALP activities for comparison.
Turning to `O=C1C(c2cccnc2)=C(c2cc(F)cc(F)c2)c2ccc(OCCC3CCNCC3)cc21` [Example 70, 3-(3,5-difluorophenyl)-6-(2-(piperidin-4-yl)ethoxy)-2-(pyridin-3-yl)-1H-inden-1-one hydrochloride salt], the activity at 10 µM was 19%.
Turning to `CN(C)CCCOc1ccc2c(c1)C(=O)C(c1cccnc1)=C2c1cc(F)cc(F)c1` [Example 60, 3-(3,5-difluorophenyl)-6-(3-(dimethylamino)propoxy)-2-(pyridin-3-yl)-1H-inden-1-one hydrochloride salt], the activity at 10 µM came out at 19%.
For `CC(C)(C)OC(=O)N1CCN(CCOc2ccc3c(c2)C(=O)C(c2cccnc2)=C3c2cc(F)cc(F)c2)CC1` [Example 58, tert-Butyl 4-(2-(3-(3,5-difluorophenyl)-1-oxo-2-(pyridin-3-yl)-1H-inden-6-yloxy)ethyl)piperazine-1-carboxylate], the activity at 10 µM turned out to be 19%.
With `CC(C)(C)OC(=O)N1CCC(CCOc2ccc3c(c2)C(=O)C(c2cccnc2)=C3c2cc(F)cc(F)c2)CC1` [Example 69, tert-butyl 4-(2-(3-(3,5-difluorophenyl)-1-oxo-2-(pyridin-3-yl)-1H-inden-6-yloxy)ethyl)piperidine-1-carboxylate], the activity at 10 µM was 72%.
`COc1ccc(C2=C(c3ccc(F)cc3F)c3ccc(OCCN4CCN(S(C)(=O)=O)CC4)cc3C2=O)cc1F` [Example 118, 2-(3-fluoro-4-methoxyphenyl)-3-(2,4-difluorophenyl)-6-{2-[4-(methylsulfonyl)piperazin-1-yl]ethoxy}-1H-inden-1-one]: the activity at 10 µM amounted to 311%.
On to `CN1CCC(CCOc2ccc3c(c2)C(=O)C(c2cccnc2)=C3c2cc(F)cc(F)c2)CC1` [Example 71, 3-(3,5-difluorophenyl)-6-(2-(1-methylpiperidin-4-yl)ethoxy)-2-(pyridin-3-yl)-1H-inden-1-one hydrochloride salt], for which the activity at 10 µM worked out at 19%.
For `O=C1C(c2ccc(F)c(F)c2)=C(c2ccc(C(F)(F)F)cc2)c2ccc(OCCN3CCOCC3)cc21` [Example 34, 6-(2-morpholinoethoxy)-3-(4-(trifluoromethyl)phenyl)-2-(3,4-difluorophenyl)-1H-inden-1-one] the value was 78%; for `COc1ccc(C2=C(c3cc(F)cc(F)c3)c3ccc(OCCN4CCS(=O)(=O)CC4)cc3C2=O)cn1` [Example 93, 3-(3,5-difluorophenyl)-2-(6-methoxypyridin-3-yl)-6-[2-(1,1-dioxothiomorpholin-4-yl)ethoxy]-1H-inden-1-one hydrochloride salt], 155%.
For `CS(=O)(=O)N1CCN(CCCOc2ccc3c(c2)C(=O)C(c2cnc4ccccc4c2)=C3c2ccc(F)cc2F)CC1` [Example 111, 3-(2,4-difluorophenyl)-6-{3-[4-(methylsulfonyl)piperazin-1-yl]propoxy}-2-(quinolin-3-yl)-1H-inden-1-one] the value was 117%; for `O=C1C(c2cccnc2)=C(c2cc(F)cc(F)c2)c2ccc(OCC3CCCO3)cc21` (stereo not drawn) [Example 79, 3-(3,5-difluorophenyl)-2-(pyridin-3-yl)-6-((tetrahydrofuran-2-yl)methoxy)-1H-inden-1-one], 110%; for `O=C1C(c2cnc3ccccc3c2)=C(c2ccc(F)cc2F)c2ccc(OCCN3CCOCC3)cc21` [Example 127, 3-(2,4-difluorophenyl)-6-[2-(morpholin-4-yl)ethoxy]-2-(quinolin-3-yl)-1H-inden-1-one], 55%.
As for `O=C1C(c2ccc(F)c(F)c2)=C(c2cc(F)cc(F)c2)c2ccc(OCCN3CCOCC3)cc21` [Example 38, 6-(2-morpholinoethoxy)-2-(3,4-difluorophenyl)-3-(3,5-difluorophenyl)-1H-inden-1-one], the activity at 10 µM was found to be 77%.
Take `O=C1C(c2cnc3ccccc3c2)=C(c2cc(F)cc(F)c2)c2ccc(OCCN3CCS(=O)(=O)CC3)cc21` [Example 92, 3-(3,5-difluorophenyl)-6-[2-(1,1-dioxothiomorpholin-4-yl)ethoxy]-2-(quinolin-3-yl)-1H-inden-1-one hydrochloride salt]: the activity at 10 µM turned out to be 262%.
Turning to `CS(=O)(=O)N1CCN(CCCOc2ccc3c(c2)C(=O)C(c2cccnc2)=C3c2cc(F)cc(F)c2)CC1` [Example 68, 3-(3,5-difluorophenyl)-6-(3-(4-(methylsulfonyl)piperazin-1-yl)propoxy)-2-(pyridin-3-yl)-1H-inden-1-one hydrochloride salt], the activity at 10 µM turned out to be 164%.
On to `O=C1C(c2cncnc2)=C(c2ccc(Cl)cc2)c2ccc(OCCN3CCOCC3)cc21` [Example 30, 6-(2-morpholinoethoxy)-3-(4-chlorophenyl)-2-(pyrimidin-5-yl)-1H-inden-1-one], for which the activity at 10 µM was determined as 150%.
For `O=C1C(c2cccnc2)=C(c2cc(F)cc(F)c2)c2ccc(OCCCN3CCNCC3)cc21` [Example 66, 3-(3,5-difluorophenyl)-6-(3-(piperazin-1-yl)propoxy)-2-(pyridin-3-yl)-1H-inden-1-one hydrochloride salt], the activity at 10 µM was found to be 70%.
For `Cc1ccc(C2=C(c3ccccc3)c3ccc(OCCN4CCOCC4)cc3C2=O)cc1F` [Example 19, 6-(2-morpholinoethoxy)-2-(3-fluoro-4-methylphenyl)-3-phenyl-1H-inden-1-one] the value was 220%; for `O=C1C(c2ccc(C(F)(F)F)cc2)=C(c2ccccc2)c2ccc(OCCN3CCOCC3)cc21` [Example 13, 6-(2-morpholinoethoxy)-2-(4-(trifluoromethyl)phenyl)-3-phenyl-1H-inden-1-one], 151%; for `CS(=O)(=O)N1CCN(CCOc2ccc3c(c2)C(=O)C(c2ccc(F)c(F)c2)=C3c2ccc(C(F)(F)F)cc2)CC1` [Example 48, 2-(3,4-difluorophenyl)-6-(2-(4-(methylsulfonyl)piperazin-1-yl)ethoxy)-3-(4-(trifluoromethyl)phenyl)-1H-inden-1-one], 67%.
For the molecule `O=C1C(c2ccc[nH]2)=C(c2ccccc2)c2ccc(OCCN3CCOCC3)cc21` [Example 90, 6-(2-morpholinoethoxy)-3-phenyl-2-(1H-pyrrol-2-yl)-1H-inden-1-one], the activity at 10 µM is 63%.
Consider `O=C1C(c2ccc(C(F)(F)F)cc2)=C(c2ccc(C(F)(F)F)cc2)c2ccc(OCCN3CCOCC3)cc21` [Example 33, 6-(2-morpholinoethoxy)-2,3-bis(4-(trifluoromethyl)phenyl)-1H-inden-1-one], for which the activity at 10 µM worked out at 65%.
Turning to `CS(=O)(=O)N1CCC(CCOc2ccc3c(c2)C(=O)C(c2cnc4ccccc4c2)=C3c2cc(F)cc(F)c2)CC1` [Example 101, 3-(3,5-difluorophenyl)-6-{2-[1-(methylsulfonyl)piperidin-4-yl]ethoxy}-2-(quinolin-3-yl)-1H-inden-1-one hydrochloride salt], the activity at 10 µM is 216%.
With `COc1ccc(C2=C(c3cc(F)cc(F)c3)c3ccc(OCCN4CCS(=O)(=O)CC4)cc3C2=O)cc1F` [Example 95, 2-(3-fluoro-4-methoxyphenyl)-3-(3,5-difluorophenyl)-6-[2-(1,1-dioxothiomorpholin-4-yl)ethoxy]-1H-inden-1-one hydrochloride salt], the activity at 10 µM came to 203%.
As for `Cn1ccc2cc(C3=C(c4ccccc4)c4ccc(OCCN5CCOCC5)cc4C3=O)ccc21` [Example 87, 2-(1-methyl-1H-indol-5-yl)-6-(2-morpholinoethoxy)-3-phenyl-1H-inden-1-one], the activity at 10 µM worked out at 71%.
Regarding `O=C1C(c2cccnc2)=C(c2cc(F)cc(F)c2)c2ccc(OCCN3CCOCC3)cc21` [Example 36, 6-(2-morpholinoethoxy)-3-(3,5-difluorophenyl)-2-(pyridin-3-yl)-1H-inden-1-one hydrochloride salt], the activity at 10 µM stood at 224%.
Turning to `CN1CCN(CCCOc2ccc3c(c2)C(=O)C(c2cccnc2)=C3c2cc(F)cc(F)c2)CC1` [Example 65, 3-(3,5-difluorophenyl)-6-(3-(4-methylpiperazin-1-yl)propoxy)-2-(pyridin-3-yl)-1H-inden-1-one hydrochloride salt], the activity at 10 µM is 19%.
In the case of `C[n+]1cccc(C2=C(c3ccccc3)c3ccc(OCCN4CCOCC4)cc3C2=O)c1` [Example 41, 1-methyl-3-{6-[2-(morpholin-4-yl)ethoxy]-1-oxo-3-phenyl-1H-inden-2-yl}pyridin-1-ium iodide], the activity at 10 µM came out at 329%.
On to `O=C1C(c2cccnc2)=C(c2cc(F)cc(F)c2)c2ccc(OCCc3ccccc3)cc21` [Example 61, 3-(3,5-difluorophenyl)-6-phenethoxy-2-(pyridin-3-yl)-1H-inden-1-one hydrochloride salt], for which the activity at 10 µM came out at 113%.
Turning to `O=C1C(c2ccc(F)cc2)=C(c2ccccc2)c2ccc(OCCN3CCOCC3)cc21` [Example 17, 6-(2-morpholinoethoxy)-2-(4-fluorophenyl)-3-phenyl-1H-inden-1-one], the activity at 10 µM is 236%.
As for `COc1ccc(C2=C(c3ccc(F)cc3F)c3ccc(OCCN4CCN(S(C)(=O)=O)CC4)cc3C2=O)cn1` [Example 117, 3-(2,4-difluorophenyl)-2-(6-methoxypyridin-3-yl)-6-{2-[4-(methylsulfonyl)piperazin-1-yl]ethoxy}-1H-inden-1-one], the activity at 10 µM amounted to 98%.

Values taken from patent US8877747B2, “Indenone derivative and pharmaceutical composition comprising same” (Korea Research Institute of Chemical Technology, priority 2009, dated 2014).
